Tests used:
cancer cells = test: Mitotic progression of cancer cells (FACS analysis); type: cell-based; set-up: inhibitory effect on mitotic progression: RXRα dependence and other cancer cell lines (FACS): dose or concentration left out as unconfirmed
Method: Cells were harvested by trypsin digestion, washed with PBS, and fixed with ice-cold 70% ethanol overnight at 4° C. The fixed cells were then washed twice in PBS and treated for 10 min at room temperature with 0.5 μg/mL 4-6-diamidino-2-phenylindole (DAPI) in PBS and analyzed on a FACSCAN™ flow cytometer. Flow cytometry data were analyzed using CYTEXPERT.

cancer cell lines = test: Western blot analysis of mitotic arrest, apoptosis and SAC activation in cancer cell lines; type: cell-based, human
HepG2 cells = test: Western blot analysis of liver cancer HepG2 cells; type: cell-based, human; conditions: indicated concentration for 12 hr (FIG. 61)
HepG2 xenografts = HepG2 xenografts in nude mice; type: in vivo, mouse
Method: FIGS. 69 and 70 show the analysis of nude mice injected with HepG2 cells, where the mice were treated with compound A1 (80 mg/kg) once every two days. The tumor volume was monitored and recorded. Tumors excised at day 14 were shown in FIG. 69 and weight in FIG. 70 (±SEM; **p<0.01).
BALB/c nude mice (7-8 weeks old) were injected subcutaneously with 100 μL HepG2 cells (2×10^6). For treatment, mice were administered with compound A1 (80 mg/kg) diluted in corn oil once every two days. Body weights and tumor sizes were measured every 2 days with tumor volumes (V) calculated by the formula of (width)^2×length/2. The mice were sacrificed after 14 days of treatment and tumors were removed for additional assessments. Isolation and culture of mouse primary liver tumor cells
Livers or transplanted tumor from mouse were fixed in 4% neutral buffered formalin phosphate (pH 7.0) for periods not exceeding 24 hr and were subsequently embedded in paraffin. They were sliced into 4-μm sections for H&E (hematoxylin and eosin) staining, immunofluorescence and for immunohistochemistry. To examine hepatocytes, H&E stained-liver sections were analyzed with an image analysis system. For immunostaining, liver sections or tumor sections were incubated with an anti-γ-tubulin (1:200 dilution), anti-pS10-H3 (1:200 dilution), anti-γ-H2AX (1:200 dilution), or cleaved-caspase-3 (1:100 dilution) antibody. Positive cells or areas were counted and measured, respectively, for at least 10 fields.

[1] = system: primary human hepatocellular carcinoma cells; test: Western blot analysis of primary hepatic carcinoma cells from a liver cancer patient; type: cell-based; conditions: 10 μM for 48 hr (FIG. 63)
Method: Tissue samples were obtained by surgical resection and processed within 2 hr. Chen et al., Oncotarget 2016, 7, 17047-59. Samples were washed with 1×SC-2 solution, minced with fine sterile scissors and scalpel into fragments of ˜1 mm^3. They were then treated with pre-warmed collagenase type IV for 30 min at 37° C. and filtered through a 70 μm cell strainer. The pellet containing the liver cells was resuspended in ice cold SC-2 solution and triple centrifugation at 1,000 g for 10 min at 4° C. was performed in order to separate the purified hepatocyte population (pellet) from non-parenchymal cells (supernatant). The pellet contained the purified hepatocytes. The resolved single-cell suspensions were then re-suspended in a primary cell culture medium (DMEM, 20% FBS, 2 mM glutamine, 1 mM pyruvate, 10 mM HEPES, 100 units/mL penicillin/streptomycin, 0.1 mg/mL gentamicin, and […] fungizone), plated in 6-well plates coated with 5 μg/cm^2 rat tail collagen type I and maintained in culture at 37° C. and 5% CO2.

B16F10 and 4T1 cells = test: Mitotic arrest and chromosome misalignment in B16F10 and 4T1 tumor cells; type: cell-based, mouse
[2] = biological target: T1, p-RXRα and PLK1 at the centrosome (Homo sapiens, UniProt P19793); test: In situ proximity ligation assay (PLA) in HepG2 cells; type: cell-based; conditions: RO-3306 10 μM for 30 min or compound A1 10 μM for 2 hr (FIG. 56)
T1 construct: endogenous in cells; host or cells: HepG2
T1 sequence (P19793 1-462): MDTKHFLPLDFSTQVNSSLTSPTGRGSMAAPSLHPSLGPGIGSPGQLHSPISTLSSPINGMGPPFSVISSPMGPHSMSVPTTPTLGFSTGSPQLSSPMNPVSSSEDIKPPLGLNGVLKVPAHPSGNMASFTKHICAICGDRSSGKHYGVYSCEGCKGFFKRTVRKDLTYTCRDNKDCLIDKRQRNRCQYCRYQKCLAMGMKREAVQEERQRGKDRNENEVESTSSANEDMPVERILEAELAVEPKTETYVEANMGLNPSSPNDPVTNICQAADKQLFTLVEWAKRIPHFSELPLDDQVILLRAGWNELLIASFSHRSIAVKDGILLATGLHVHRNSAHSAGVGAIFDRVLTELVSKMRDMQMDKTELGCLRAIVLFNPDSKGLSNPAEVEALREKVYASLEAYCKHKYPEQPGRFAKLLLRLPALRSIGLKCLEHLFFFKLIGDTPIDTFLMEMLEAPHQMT
Method: An in situ proximity ligation assay (PLA) was performed in HeLa cells and HepG2 by using a DOULINK™ assay kit. Briefly, cells mounted on glass slides were fixed with methanol at −20° C. for 5 min, then permeabilized with 0.05% Triton X-100 in a PBS buffer for 8 min at 4° C., and blocked with a blocking solution for 60 min at 37° C., followed by incubation with primary antibodies for 60 min at 37° C. The slides were then washed three times with wash buffer A, and PLA labeled secondary antibodies (anti-mouse, minus; anti-rabbit, plus) were added and incubated for 60 min at 37° C. The slides were washed two times with wash buffer A and a ligation solution including a ligase was added for 30 min at 37° C. After ligation, the slides were washed two times with wash buffer A and followed by incubation with an amplification buffer including a polymerase for 100 min at 37° C. After amplification, the slides were washed two times with 1×wash buffer B and one time in 0.01×wash buffer B. Finally, the slides were mounted using a minimal volume of a mounting medium with DAPI and analyzed in a confocal microscope after 15 min.

HeLa cells = test: MT nucleation activity at the centrosomes in cold-treated, reheated HeLa cells; type: cell-based, human; conditions: reheated at 37° C., 10 μM (FIG. 59)
[3] = biological target: T2, m-RXRα (p-RXRα) interaction with PLK1 (Homo sapiens, UniProt P19793); test: Co-immunoprecipitation of Myc-RXRα with FLAG-PLK1 in HeLa cells; conditions: 10 μM for 3 hr (FIG. 55)
T2 sequence (P19793 1-462): T1 sequence (P19793 1-462)
Method: Briefly, cells were harvested in a lysis buffer (10 mM Tris, pH 7.4, 150 mM NaCl, 0.5% NP40, 5 mM ethylene diamine tetraacetic acid, containing protease inhibitors). Cell lysates were incubated with an antibody (1 μg) at 4° C. for 2 hr. Immunocomplexes were then precipitated with 30 μL of protein G-Sepharose beads. After an extensive washing with the lysis buffer, the beads were boiled in a sodium dodecyl sulfate (SDS) sample loading buffer and assessed by western blotting.
Cell lysates were boiled in an SDS sample loading buffer, resolved by 10% SDS-polyacrylamide gel electrophoresis (SDS-PAGE), and transferred to PVDF membranes. The membranes were blocked with 5% milk in a Tris buffered saline and TWEEN 20 (TBST)(10 mM Tris-HCl, pH 8.0, 150 mM NaCl, 0.05% TWEEN 20) for 1 hr at room temperature. After washing twice with TBST, the membranes were incubated with primary antibodies in TBST for 1 hr and then washed twice, probed with a horseradish peroxide-linked anti-immunoglobulin (1:5,000 dilution) for 1 hr at room temperature. After three washes with TBST, immunoreactive products were visualized using enhanced chemiluminescence reagents and autoradiography.

For COc1ccc(CC(=O)N/N=C/c2c(O)ccc3ccccc23)cc1 [Compound A1, (E)-N′-((2-hydroxynaphthalen-1-yl)methylene)-2-(4-methoxyphenyl)acetohydrazide], the “mitotic progression of cancer cells” value (cancer cells) was “inhibited mitotic progression of cancer cells”, the “inhibitory effect on mitotic progression: RXRα dependence and other cancer cell lines (FACS)” value (cancer cells; indicated cell lines) was “RXRα dependent and observed in many other cancer cell lines” and the “apoptosis of cancer cells” value (cancer cell lines) was “induced apoptosis of cancer cells in a dose-dependent and RXRα-dependent manner”. The “activation of the spindle assembly checkpoint (SAC), mobility-shifted BubR1” value (cancer cell lines; FIGS. 61, 62 and 68) was “accompanied with the activation of the spindle assembly checkpoint (SAC)”, the “nuclear morphology (mitotic catastrophe)” value (cancer cell lines; cancer cells treated with compound A1) was “exhibited multi-lobular, giant nuclear and/or highly fragmented/bursted nuclei” and the “induction of mitotic arrest and apoptosis” value (cancer cell lines; various cancer cell lines (HepG2, Bel-7402, SK-Hep-1), 12 hr (FIGS. 61 and 62)) was “observed”. The “effect in p-RXRα-positive HepG2 liver cancer cells” value (HepG2 cells) was “potent effect”, the “effects of compound A1 in normal liver tissues” value (HepG2 xenografts; normal liver tissues of HepG2 xenograft mice (FIG. 71)) was “not observed in normal liver tissues” and the “mitotic arrest and DNA damage response in normal tissues” value (HepG2 xenografts; normal tissues of kidney, intestine, spleen, and heart) was “no effect”. For the same compound, the “signs of overt toxicities” value (HepG2 xenografts; nude mice, 80 mg/kg once every two days, 14 days) was “without any signs of overt toxicities”, the “growth of HepG2 tumor” value (HepG2 xenografts; nude mice, subcutaneous HepG2 xenografts, 80 mg/kg in corn oil once every two days, 14 days (FIGS. 69 and 70)) was “strongly inhibited the growth of HepG2 tumor” and the “mitotic arrest, chromosome aberrations, DNA damage response, and caspase 3 activation in tumor cells” value (HepG2 xenografts; tumor specimens from HepG2 xenograft (FIG. 71)) was “induction of mitotic arrest, chromosome aberrations, DNA damage response, and caspase 3 activation in tumor cells”. The “induction of mitotic arrest and apoptosis” value [1] was “observed”, the “chromosomal aberrations (chromosome misalignment)” value (B16F10 and 4T1 cells; 10 μM for 2 hr (FIG. 67)) was “chromosomal aberrations” and the mitotic arrest (B16F10 and 4T1 cells; 10 μM for 6 hr (FIG. 66)) was “caused mitotic arrest”. The “in situ interaction between p-RXRα and PLK1 at the centrosome (PLA)” value [2] was “inhibited the in situ interaction”, the “α-tubulin nucleation (MT nucleation activity at the centrosomes)” value (HeLa cells) was “inhibited α-tubulin nucleation” and the “p-RXRα interaction with PLK1 (CoIP)” value [3] was “inhibited”.

Source: patent US20240034785A1, “RXR-ALPHA BINDERS AND RXR-ALPHA/PLK1 MODULATORS” (NUCMITO PHARMACEUTICALS CO. LTD., priority 2020, published 2024)
